{"source": "patent US20180146647A1", "about": "“MEDETOMIDINE FOR USE IN CONTROLLING PARASITIC CRUSTACEANS ON FISH” (I-Tech AB, priority 2015, published 2018)", "origin": "cited, not measured here", "key": {"cyprid larvae": {"test_system": "cyprid larvae", "conditions": "medetomidine 10 nM; Mol Pharmacol 78:237-248, 2010"}, "algae": {"test_system": "algae", "conditions": "target protein lacking within algae"}, "α2-adrenoceptor": {"test_system": "α2-adrenoceptor", "conditions": "given to mammals and fish; Sinclair, 2003; Ruuskanen et al., 2005"}}, "data": [{"smiles": "Cc1cccc(C(C)c2c[nH]cn2)c1C", "note": "(racemic) [Medetomidine, (±) 4-[1-(2,3-Dimethylphenyl)ethyl]-1H-imidazole]", "values": [{"measurement": "kicking of the cyprid larvae", "setting": "cyprid larvae", "value": "more than 100 kicks per minute"}, {"measurement": "effect on algal growth", "setting": "algae", "value": "no effect on algal growth"}, {"measurement": "physiological effect in vertebrates", "setting": "α2-adrenoceptor", "value": "sedation and locomotor inhibition"}]}]}
